Literature values in patent publication US20090011476A1, “GENE CLUSTER AND METHOD FOR THE BIOSYNTHESIS OF TERREQUINONE A” (Wisconsin Alumni Research Foundation, priority 2005, published 2009).

System: tumor cell lines
Settings: literature statement, values not given

terrequinone A
inhibitory properties on tumor cell lines: inhibitory properties
